Data published in PubChem BioAssay (NCI).
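Method: 48-hour compound exposure of cells in 96-well plates, five concentrations, linear interpolation of endpoints. The concentration for 50% growth inhibition is given as GI50. At the TGI there is no net growth.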

Tests used:
Test in all cases: NCI-60 cell line screen, 48 h; in the data active = GI50 below about 0.43 µM; inactive = the rest
786-0 renal = test system: 786-0 renal
A498 renal = test system: A498 renal
A549 NSCLC = test system: A549 NSCLC
ACHN renal = test system: ACHN renal
BT-549 breast = test system: BT-549 breast
CAKI-1 renal = test system: CAKI-1 renal
CCRF-CEM leukemia = test system: CCRF-CEM leukemia
COLO 205 colon = test system: COLO 205 colon
DU-145 prostate = test system: DU-145 prostate
EKVX NSCLC = test system: EKVX NSCLC
HCC-2998 colon = test system: HCC-2998 colon
HCT-116 colon = test system: HCT-116 colon
HCT-15 colon = test system: HCT-15 colon
HL-60(TB) leukemia = test system: HL-60(TB) leukemia
HOP-62 NSCLC = test system: HOP-62 NSCLC
HOP-92 NSCLC = test system: HOP-92 NSCLC
HS 578T breast = test system: HS 578T breast
HT29 colon = test system: HT29 colon
IGROV1 ovarian = test system: IGROV1 ovarian
K-562 leukemia = test system: K-562 leukemia
KM12 colon = test system: KM12 colon
LOX IMVI melanoma = test system: LOX IMVI melanoma
MALME-3M melanoma = test system: MALME-3M melanoma
MCF7 breast = test system: MCF7 breast
MDA-MB-231 breast = test system: MDA-MB-231 breast
MDA-MB-435 = test system: MDA-MB-435
MOLT-4 leukemia = test system: MOLT-4 leukemia
NCI-H226 lung = test system: NCI-H226 lung
NCI-H23 lung = test system: NCI-H23 lung
NCI-H460 lung = test system: NCI-H460 lung
NCI-H522 lung = test system: NCI-H522 lung
OVCAR-3 ovarian = test system: OVCAR-3 ovarian
OVCAR-4 ovarian = test system: OVCAR-4 ovarian
OVCAR-5 ovarian = test system: OVCAR-5 ovarian
OVCAR-8 ovarian = test system: OVCAR-8 ovarian
PC-3 prostate = test system: PC-3 prostate
RPMI-8226 leukemia = test system: RPMI-8226 leukemia
RXF 393 renal = test system: RXF 393 renal
SF-268 CNS = test system: SF-268 CNS
SF-539 CNS = test system: SF-539 CNS
SK-MEL-2 melanoma = test system: SK-MEL-2 melanoma
SK-MEL-28 melanoma = test system: SK-MEL-28 melanoma
SK-MEL-5 melanoma = test system: SK-MEL-5 melanoma
SK-OV-3 ovarian = test system: SK-OV-3 ovarian
SN12C renal = test system: SN12C renal
SNB-19 CNS = test system: SNB-19 CNS
SNB-75 CNS = test system: SNB-75 CNS
SR leukemia = test system: SR leukemia
SW-620 colon = test system: SW-620 colon
T-47D breast = test system: T-47D breast
TK-10 renal = test system: TK-10 renal
U251 CNS = test system: U251 CNS
UACC-257 melanoma = test system: UACC-257 melanoma
UACC-62 melanoma = test system: UACC-62 melanoma
UO-31 renal = test system: UO-31 renal

CN(C)c1ccc(C(=NO)c2ccc(N(C)C)cc2)cc1
53.2 µM: TGI (SNB-75 CNS)
7.86 µM: TGI (CAKI-1 renal)
98.6 µM: TGI (TK-10 renal)
inactive: GI50 (786-0 renal) 7.49 µM | GI50 (A498 renal) 2.57 µM | GI50 (A549 NSCLC) 3.34 µM | GI50 (ACHN renal) 8.43 µM | GI50 (BT-549 breast) 7.34 µM | GI50 (CAKI-1 renal) 1.95 µM | GI50 (CCRF-CEM leukemia) 3.27 µM | GI50 (COLO 205 colon) 3.51 µM | GI50 (DU-145 prostate) 4.52 µM | GI50 (EKVX NSCLC) 3.28 µM | GI50 (HCC-2998 colon) 8.06 µM | GI50 (HCT-116 colon) 2.53 µM | GI50 (HCT-15 colon) 1.64 µM | GI50 (HL-60(TB) leukemia) 1.62 µM | GI50 (HOP-62 NSCLC) 6.1 µM | GI50 (HOP-92 NSCLC) 15.2 µM | GI50 (HS 578T breast) 7.39 µM | GI50 (HT29 colon) 3.6 µM | GI50 (IGROV1 ovarian) 2.4 µM | GI50 (KM12 colon) 1.28 µM | GI50 (LOX IMVI melanoma) 6.29 µM | GI50 (MALME-3M melanoma) 2.63 µM | GI50 (MCF7 breast) 1.71 µM | GI50 (MDA-MB-231 breast) 4.85 µM | GI50 (MOLT-4 leukemia) 3.02 µM | GI50 (NCI-H226 lung) 9.43 µM | GI50 (NCI-H23 lung) 5.42 µM | GI50 (NCI-H460 lung) 3.23 µM | GI50 (NCI-H522 lung) 1.08 µM | GI50 (OVCAR-3 ovarian) 2.22 µM | GI50 (OVCAR-4 ovarian) 89 µM | GI50 (OVCAR-5 ovarian) 15.1 µM | GI50 (OVCAR-8 ovarian) 3.9 µM | GI50 (PC-3 prostate) 18.1 µM | GI50 (RPMI-8226 leukemia) 2.04 µM | GI50 (RXF 393 renal) 1.46 µM | GI50 (SF-268 CNS) 4.71 µM | GI50 (SF-539 CNS) 3.38 µM | GI50 (SK-MEL-2 melanoma) 3.57 µM | GI50 (SK-MEL-28 melanoma) 5.3 µM | GI50 (SK-MEL-5 melanoma) 1.57 µM | GI50 (SK-OV-3 ovarian) 3.57 µM | GI50 (SN12C renal) 4.94 µM | GI50 (SNB-19 CNS) 4.04 µM | GI50 (SNB-75 CNS) 3.33 µM | GI50 (SW-620 colon) 0.729 µM | GI50 (T-47D breast) 5.59 µM | GI50 (TK-10 renal) 7.47 µM | GI50 (U251 CNS) 2.68 µM | GI50 (UACC-257 melanoma) 5.12 µM | GI50 (UACC-62 melanoma) 2.11 µM | GI50 (UO-31 renal) 4.73 µM
22.4 µM: TGI (COLO 205 colon)
> 100 µM: TGI (786-0 renal) | TGI (A498 renal) | TGI (A549 NSCLC) | TGI (ACHN renal) | TGI (BT-549 breast) | TGI (CCRF-CEM leukemia) | TGI (DU-145 prostate) | TGI (EKVX NSCLC) | TGI (HCC-2998 colon) | TGI (HCT-116 colon) | TGI (HCT-15 colon) | TGI (HL-60(TB) leukemia) | TGI (HOP-62 NSCLC) | TGI (HOP-92 NSCLC) | TGI (HS 578T breast) | TGI (HT29 colon) | TGI (IGROV1 ovarian) | TGI (K-562 leukemia) | TGI (KM12 colon) | TGI (LOX IMVI melanoma) | TGI (MALME-3M melanoma) | TGI (MCF7 breast) | TGI (MDA-MB-231 breast) | TGI (MOLT-4 leukemia) | TGI (NCI-H226 lung) | TGI (NCI-H23 lung) | TGI (NCI-H460 lung) | TGI (NCI-H522 lung) | TGI (OVCAR-4 ovarian) | TGI (OVCAR-5 ovarian) | TGI (OVCAR-8 ovarian) | TGI (PC-3 prostate) | TGI (SF-268 CNS) | TGI (SF-539 CNS) | TGI (SK-MEL-2 melanoma) | TGI (SK-MEL-28 melanoma) | TGI (SK-OV-3 ovarian) | TGI (SN12C renal) | TGI (SNB-19 CNS) | TGI (SR leukemia) | TGI (SW-620 colon) | TGI (T-47D breast) | TGI (U251 CNS) | TGI (UACC-257 melanoma) | TGI (UACC-62 melanoma) | TGI (UO-31 renal)
10.1 µM: TGI (OVCAR-3 ovarian)
5.03 µM: TGI (RXF 393 renal)
4.74 µM: TGI (SK-MEL-5 melanoma)
1.92 µM: TGI (MDA-MB-435)
active: GI50 (K-562 leukemia) 0.418 µM | GI50 (MDA-MB-435) 0.277 µM | GI50 (SR leukemia) 0.32 µM
7.94 µM: TGI (RPMI-8226 leukemia)
